These results are taken from US6214859A, “Ethylamine derivatives” (Fujimoto Brothers Co., Ltd., priority 1997, dated 2001).

For one series, the target named is α1 receptor. As to the kind of experiment: Affinity to α1 receptor. Further details: species or system rat. The settings on record: read-out: Affinity to α1 receptor (MIC50; mole concentration for 50% inhibition of binding); 0.25 nM ^3H-prazocin; 90 min. On the procedure:
The solution of receptor was prepared as follows. As soon as rats were decapitated, brain was removed and its weight was measured. Its brain was homogenized in ten times volumes of ice-cold 0.35 M sucrose (pH 7.4) by glass homogenizer with teflon pestle which was revolted by motors. Thereafter, the homogenate was centrifuged at 4° C. at 900×g for 10 min and the supernatant was, furthermore, recentrifuged at 4° C. at 22,000×g for 20 min. The precipitate was suspended by addition of 5 mM phosphate buffer solution (pH 7.4). After the suspension was incubated at 37° C. for 30 min, the suspension was recentrifuged at 4° C. at 22,000×g for 20 min. The precipitate was resuspended by addition of 10 ml of 5 mM phosphate buffer solution (pH 8.0). The precipitate was used as the solution of receptor.
^3 H-prazocin was used as a ligand. 0.25 nM ^3 H-prazocin in 5 mM phosphate buffer (pH 8.0), the compound of this invention and the solution of receptor were added in tube and the mixture were incubated at 25° C. for 90 min. In addition, the […] binding was shown by binding value of ^3 H-prazocin under the coexistence with 0.1 μM prazocin. The binding reaction was carried out as follows. After ^3 H-prazocin (binding type: B) bound to receptor using glassfiberfilter (pore size: 0.5 μm, Whatman GF/C.) and free type of prazocin (free type: F) were separated with B/F separator (Brandel, USA), only the binding type of ^3 H-prazocin was collected. The binding type of ^3 H-prazocin absorbed to glass-fiber filter was washed with ice-cold saline solution and was remove to vial. After 10 ml of scintillation cocktail was added in it, the radioactivity was determined. From the binding inhibition rate of α1 receptor and ligand, affinity of the compounds of this invention to α1 receptor was measured.
If affinity of certain compound to a receptor is high, the binding ligand and receptor is inhibited.

In another series the target is T1, D1 receptor (Rattus norvegicus, UniProt P18901).
T1 construct: The precipitate was used as the solution of receptor; from tissue; host or cells: rat brain (whole) crude membranes
T1 sequence (P18901 whole entry): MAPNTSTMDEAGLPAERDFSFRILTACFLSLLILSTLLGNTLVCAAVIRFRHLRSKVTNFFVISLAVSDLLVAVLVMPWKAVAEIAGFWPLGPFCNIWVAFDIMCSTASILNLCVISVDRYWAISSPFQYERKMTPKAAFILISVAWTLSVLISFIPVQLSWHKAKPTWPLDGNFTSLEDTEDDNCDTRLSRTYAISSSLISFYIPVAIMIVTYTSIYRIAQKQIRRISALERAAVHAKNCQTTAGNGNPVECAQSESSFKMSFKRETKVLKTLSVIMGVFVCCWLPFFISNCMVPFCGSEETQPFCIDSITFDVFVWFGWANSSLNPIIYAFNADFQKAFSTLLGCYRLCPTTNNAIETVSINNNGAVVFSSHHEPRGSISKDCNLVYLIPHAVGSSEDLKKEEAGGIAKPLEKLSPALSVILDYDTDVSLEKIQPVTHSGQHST
As to the kind of experiment: Affinity to D1 receptor. In kind it is binding.

A short description of series [1]: Toxicity screening using primary cultured hepatocyte (LDH release). The settings on record: rat, primary hepatocytes, 24 hr, control 0.5% saline or 0.5% DMSO, read-out: Percent control of LDH release. In kind it is cell-based, rat. On the procedure: The hepatocytes was prepared from rat liver by collagenase perfusion method and suspension containing 5×10^5 cells/ml were prepared. After cultivation for 24 hr, the suspension was exchanged to the William's Medium E (GIBCO BRL) containing 10 or 100 μM of the compounds of this invention. After cultivation for 24 hr, the activity of lactate dehydrogenase (LDH) released in the medium was measured.

A further series addresses α2 receptor. As to the kind of experiment: Affinity to α2 receptor. More on the design: species or system rat. The note with it: read-out: Affinity to α2 receptor (MIC50; mole concentration for 50% inhibition of binding); 0.7 nM ^3H-rauwolscine.
The test system of series [2] is dopamine release, substantia nigra. As to the kind of experiment: Release of biogenic amines from brain tissue: dopamine, substantia nigra. In kind it is in vivo, Wistar rats.
For the next series, the target named is D2 receptor. As to the kind of experiment: Affinity to D2 receptor. Further details: species or system rat. The note with it: read-out: Affinity to D2 receptor (MIC50; mole concentration for 50% inhibition of binding); 2.0 nM spiperone.
The test system of series [3] is noradrenaline release, locus coeruleus. As to the kind of experiment: Release of biogenic amines from brain tissue: noradrenaline, locus coeruleus. In kind it is in vivo, Wistar rats.

Where “and” joins values, the source holds several entries; their conditions need not be identical. Equal entries are not always repeated.

For `CCCNC(CCC)Cc1c[nH]c2ccccc12.Cl` (stereo not drawn) [Compound No. 20, 1-(Indol-3-yl)-2-propylaminopentane Hydrochloride], the IC50 at α1 receptor was 80 µM; at D1 receptor, greater than 10 µM; on α2 receptor, 0.9 µM; on D2 receptor, greater than 10 µM. The activity at 24 h, 10 µM in series [1] is 92.7 ± 5.31%. Also, the activity at 24 h, 100 µM in series [1] is 185 ± 3.45%. Further, the “Release of dopamine, substantia nigra” value in series [2] (0.005 mg/kg s.c.) is 8.7 ± 0.13 nmol/g tissue, for 20 min; in series [2] (0.01 mg/kg s.c., Hydrochloride), 10.3 ± 0.23 nmol/g tissue, for 20 min and 10.0 ± 0.14 nmol/g tissue, for 20 min; in series [2] (0.05 mg/kg s.c.), 7.7 ± 0.15 nmol/g tissue, for 20 min; in series [2] (0.25 mg/kg s.c.), 5.2 ± 0.26 nmol/g tissue, for 20 min; in series [2] (1.00 mg/kg s.c.), 6.7 ± 0.19 nmol/g tissue, for 20 min; in series [2] (5.00 mg/kg s.c.), 5.7 ± 0.18 nmol/g tissue, for 20 min. For the same molecule, the “Release of noradrenaline, locus coeruleus” value in series [3] (0.005 mg/kg s.c.) was 5.3 ± 0.30 nmol/g tissue, for 20 min; in series [3] (0.01 mg/kg s.c., Hydrochloride), 4.3 ± 0.10 nmol/g tissue, for 20 min and 2.2 ± 0.15 nmol/g tissue, for 20 min; in series [3] (0.05 mg/kg s.c.) it was 3.2 ± 0.15 nmol/g tissue, for 20 min; in series [3] (0.25 mg/kg s.c.), 4.3 ± 0.15 nmol/g tissue, for 20 min; in series [3] (1.00 mg/kg s.c.), 4.4 ± 0.25 nmol/g tissue, for 20 min; in series [3] (5.00 mg/kg s.c.) it was 3.5 ± 0.20 nmol/g tissue, for 20 min.
Regarding `CCCNC(CCC)Cc1ccc2c(c1)OCO2.Cl` (stereo not drawn) [Compound No. 27, 1-(1,3-Benzodioxol-5-yl)-2-propylaminopentane Hydrochloride], the activity at 24 h, 10 µM in series [1] came out at 115 ± 10.8%. Moreover, the activity at 24 h, 100 µM in series [1] turned out to be 114 ± 11.2%. In addition, the “Release of dopamine, substantia nigra” value in series [2] (0.10 mg/kg s.c.) was 7.8 ± 0.44 nmol/g tissue, for 20 min; in series [2] (0.25 mg/kg s.c.), 9.5 ± 0.32 nmol/g tissue, for 20 min. The “Release of noradrenaline, locus coeruleus” value is given as 3.8 ± 0.15 nmol/g tissue, for 20 min in series [3] (0.10 mg/kg s.c.) and 3.5 ± 0.20 nmol/g tissue, for 20 min in series [3] (0.25 mg/kg s.c.).
